According to patent publication US20080027139A1, “Use of Alpha-Ketoglutarate and Related Compounds” (priority 2004, published 2008):
Read-outs that look alike come from different tables or passages of the source.

What was measured:
[1] = system: Wistar rats with diet-induced hypercholesterolaemia; conditions: day 120; AKG doses 0.1 and 1 from day 61 for 60 days; p<0.05
Description: Afterwards all animals received fodder enriched with 1% cholesterol (Sigma-Aldrich, Germany) and 10% lard in order to obtain hypercholesterolaemia. • 12 rats (6 females and 6 males) were killed on day 0 as an introduction control. • 12 rats (6 females and 6 males) were killed at day 30. • 12 rats (6 females and 6 males) were killed at day 60.
Remaining 48 rats were divided into 3 groups and the experiment continued for another 60 days on cholesteremic diet: • 1. Placebo group—24 rats (12 females and 12 males) • 2. 1 g AKG group—12 rats (6 females and 6 males) • 3. 0.1 g AKG group—12 rats (6 females and 6 males)
During the first 60 days of using cholesterol and lard enriched diet, the lipid profile was checked three times to determine the concentration of the entire cholesterol, the fraction of LDL and HDL and triglycerides. Measuring tests were performed a day before the said diet was commenced (day 0) and subsequently after 30 and 60 days of the application of the said diet. On the sixty first day of the experiment animals were divided into two groups: one receiving the placebo solution and the other receiving AKG solution (AKG in doses 0.1 and 1 (Table 9). All the time animals continued to receive experimental fodder. During the period when placebo and AKG solutions were administered, the lipid profile was checked on the 120th day of the experiment. […]

[2] = system: volunteers with a relatively high level of cholesterol
Description: The experiment lasted for the total of 42 days. […] During the experiment no quantitative or qualitative restrictions regarding the diet were introduced. In the period from day 1 to day 28 the patients' lipid profile was checked every seven days in order to determine the concentration of cholesterol, fractions of LDL and HDL and triglycerides. […] Subsequent measurements of the lipid profile were taken on 42nd day of the experiment.

[3] = system: sham-operated (SHO) and ovariectomized (OVX) Wistar female rats
Method: A study was conducted on Wistar female rats kept in standard weather conditions. […] Afterwards the female rates were randomly divided into 2 groups: ovariectomy were performed in all animals in group one (OVX) and placebo operation were done in the second group (SHO). Surgical procedures were performed under general anesthesia (rometare, ketamine and atropine in doses 2, 10 and 0.05 mg/kg of bodily weight respectively.
Studies were conducted on the animals from the two groups: females received experimental solutions from the seventh day following the operation (simulation of the first period of the lack of activity of the ovarian hormones) (Experiment I 1), females aged 7 months with a 5 month period in which there was no activity of hormonal ovaries (simulation of the period with a prolonged absence of the activity of ovarian hormones) (Experiment I 2) (Tab. 2).
In each of Experiments I1 and I2 40 animals was used for each experimental doses making a total of 240 animals.
Blood samples were collected immediately after slaughter, and the plasma removed by centrifugation was stored in a safe place for further biochemical analyses.
The entire cholesterol concentration was determined by means of commonly available analytical equipment using the spectrophotometric method.

[4] = Volunteer 1, 1st week, chewable tablets of 1.28 g calcium alpha-ketoglutarate (1 g AKG), two tablets three times a day, day 1-28
[5] = Volunteer 1, 2nd week, calcium alpha-ketoglutarate tablets (1 g AKG), two tablets three times a day
[6] = Volunteer 1, 3rd week, calcium alpha-ketoglutarate tablets (1 g AKG), two tablets three times a day
[7] = Volunteer 1, 4th week, calcium alpha-ketoglutarate tablets (1 g AKG), two tablets three times a day
[8] = Volunteer 1, 6th week, after 2 weeks without AKG
[9] = Volunteer 2, 1st week, chewable tablets of 1.28 g calcium alpha-ketoglutarate (1 g AKG), two tablets three times a day, day 1-28
[10] = Volunteer 2, 2nd week, calcium alpha-ketoglutarate tablets (1 g AKG), two tablets three times a day
[11] = Volunteer 2, 3rd week, calcium alpha-ketoglutarate tablets (1 g AKG), two tablets three times a day
[12] = Volunteer 2, 4th week, calcium alpha-ketoglutarate tablets (1 g AKG), two tablets three times a day
[13] = Volunteer 2, 6th week, after 2 weeks without AKG
[14] = two volunteers, after a 14 day break in administering the preparation

With O=C(O)CCC(=O)C(=O)O [AKG, alpha-ketoglutaric acid] the “effect on concentration of HDL (in words)” value [1] was “increase”, the HDL level [2, 4] was 45 mg/dL and the Total cholesterol level [2, 4] was 194 mg/dL. For the same compound, the Triglycerides level [2, 4] was 197 mg/dL, the HDL level [2, 5] was 41 mg/dL and the Total cholesterol level [2, 5] was 196 mg/dL. For the same compound, the Triglycerides level [2, 5] was 304 mg/dL, the HDL level [2, 6] was 42 mg/dL and the Total cholesterol level [2, 6] was 171 mg/dL. For the same compound, the Triglycerides level [2, 6] was 269 mg/dL, the HDL level [2, 7] was 48 mg/dL and the Total cholesterol level [2, 7] was 157 mg/dL. The Triglycerides level [2, 7] was 259 mg/dL, the HDL level [2, 8] was 33 mg/dL and the Total cholesterol level [2, 8] was 197 mg/dL. For the same compound, the Triglycerides level [2, 8] was 375 mg/dL, the HDL level [2, 9] was 35 mg/dL and the Total cholesterol level [2, 9] was 190 mg/dL. The Triglycerides level [2, 9] was 122 mg/dL, the HDL level [2, 10] was 44 mg/dL and the Total cholesterol level [2, 10] was 213 mg/dL. The Triglycerides level [2, 10] was 101 mg/dL, the HDL level [2, 11] was 40 mg/dL and the Total cholesterol level [2, 11] was 199 mg/dL. For the same compound, the Triglycerides level [2, 11] was 199 mg/dL, the HDL level [2, 12] was 42 mg/dL and the Total cholesterol level [2, 12] was 189 mg/dL. It also gave a Triglycerides level [2, 12] of 187 mg/dL, an HDL level [2, 13] of 40 mg/dL and a Total cholesterol level [2, 13] of 215 mg/dL. The Triglycerides level [2, 13] was 220 mg/dL, the “effect on concentration of HDL (in words)” value ([2]; two volunteers, 28 days of tablets containing 1 g of AKG, 2 tablets 3 times a day) was “No significant effect” and the “effect on concentration of the entire cholesterol (in words)” value ([2]; two volunteers, after 28 days of tablets containing 1 g of AKG, 2 tablets 3 times a day) was “decrease”. For the same compound, the “change of concentration of HDL fraction after stopping (in words)” value [2, 14] was “statistically significant decrease”, the “change of concentration of the entire cholesterol after stopping (in words)” value [2, 14] was “increased” and the “change of concentration of triglycerides after stopping (in words)” value [2, 14] was “significant increase”. For the same compound, the “effect on concentration of triglycerides (in words)” value ([2]; two volunteers, from day 1 to day 28 of AKG tablets) was “increase”, the “effect on concentration of the entire cholesterol (in words)” value ([3]; OVX females, AKG dose 0.01 during 60 days, Experiment I-1, p=0.04, reaching the level of the control group) was “statically significant decrease” and the “effect on concentration of the entire cholesterol (in words)” value ([3]; both doses 0.01 and 0.1, OVX and SHO groups, Experiment I-2 (prolonged lack of ovarian hormones)) was “statistically significant decrease”. The “effect on concentration of the entire cholesterol (in words)” value ([3]; dose 1, females after ovariectomy relative to the control group, long-term absence of ovarian hormones (Experiment I-2)) was “decreased” and the “effect on concentration of the entire cholesterol (in words)” value ([3]; dose 1, females after ovariectomy relative to the control group, short-term absence of ovarian hormones (Experiment I-1)) was “decreased”.
